The text below walks through data of patent US11624022B2, “Preparation method for the plant-based nano corrosion inhibition bactericide for oilfield and application thereof” (Southwest Petroleum University, priority 2021, dated 2023).

Assay [1] is described as follows: Corrosion inhibition performance test (static uniform corrosion, SY/T 5273-2014). Conditions: 60 mg/L; N80 steel, corrosive solution pH 6.5, 37° C., 14 days. Here is the method:
The corrosive solution of 1 L was prepared, the pH was adjusted to 6.5, and the temperature was 37° C. at a normal pressure. The N80 steel specimens were processed with specifications of 30*15*3 and placed in corrosive solution. Three specimens were placed in each vial and different corrosion inhibitors were added respectively. The experiment lasted for 14 days.
After the test, the specimens were cleaned with stripping solution (100 ml hydrochloric acid+10 g hexamethylenetetramine+900 mL deionized water), then dehydrated by ethanol and blow-dried with N2. The determination method for static uniform corrosion inhibition rate was evaluated with referring to the Performance Index and Evaluation Method of Corrosion Inhibitor for Oilfield Produced Water Treatment (SY/T 5273-2014), the oil and gas industry standard of the People's Republic of China. The formulas of uniform corrosion rate and corrosion inhibition efficiency are as follows:
The corrosion inhibition test results are shown in Table 3, in which the corrosion inhibitors 1, 2 and 3 commonly used in oilfields are respectively the lauric acid imidazoline, abietic acid imidazoline and tetradecyl trimethyl ammonium bromide.

In assay [2] the test system is sulfate reducing bacteria (SRB). Put plainly: Sterilization performance test (serial dilution counting of SRB). It is filed as cell-based. Conditions: 60 mg/L, counted 24 hours later; for Number of SRB: no bactericide 2500000. Here is the method:
Before the test, all devices and glass containers were sterilized for 20 min at 121° C. The SRB strain was isolated from the formation water of an injection well in a shale gas field in China. SRB liquid medium was prepared according to NACE TMO194-94 standard.
The composition of the medium is as follows: Ig yeast powder, 0.1 g ascorbic acid, 0.2 g MgSO4·7H2O, 0.01 g K2HPO4, 10 g NaCl, 0.2 g (NH4)2Fe(SO4)2·6H2O, 4 mL sodium lactate, and 1000 mL deionized water. A portable pressure steam disinfection pot was used to sterilize the bacteria in the prepared medium. In the sterilization process, the temperature was kept at 120° C. for 15 min. It was then deoxidized with N2 for 2 h. 10% SRB was inoculated into the medium and placed in an incubator at 37° C. After 5 days, the number of SRB reached the peak value and remained stable.
Different bactericides were added into the cultured bacteria solution of 200 mL and counted 24 hours later.
Serial dilution method (triple repetition) was taken for the counting of SRB. Totally 10 dilution levels were provided. At each dilution level, there were three identical vials filled with 9 mL SRB medium. The measured sample of 1 mL was injected into a vial at the Level 0 and then shaken up. The 1 mL solution from the vial at the Level 0 was injected into a vial at the Level 1. The syringe for sampling the liquid each time was disposable to avoid affecting the final results. Similarly, the sample was diluted until the dilution reached Level 9. All vials were incubated at 35° C. for 14 days at a constant temperature.
The growth index should be determined according to the following principles: three dilution levels were selected from the dilution level at which negative vials appeared, and the number of positive vials was counted for each dilution level to obtain the index (When all the vials in a certain grade are negative, the previous grade is counted). The growth index (summarized according to 5.6.5.3 in SY/T 5329-1994) is obtained by multiplying the dilution factor 10^n of water sample (n is the number of dilutions before the index position). Check the corresponding bacteria count table and substitute the bacterial count detected by the index to get the content of this kind of bacteria in the water sample (Nr./mL).
The test results are shown in Table 1, in which the vials 1 to 10 are filled with 9 mL SRB medium (10^7). The dilution levels are numbered from Lev. 0 to Lev. 9. Take the measured sample of 1 mL into the Vial 1, indicating Level 0; take a new syringe and take 1 mL from Vial 1 to Vial 2, indicating Level 1; take a new syringe and take 1 mL from Vial 2 to Vial 3, indicating […]; the rest can be done in the same manner until 1 mL is taken from Vial 9 to Vial 10, indicating Level 9. “+” represents positive vial, and “−” represents negative vial.

As for lauric acid imidazoline, the Corrosion inhibition efficiency in assay [1] turned out to be 93.3%. Take `CCCCCCCCCCCC[N+](C)(C)Cc1ccccc1.[Cl-]` [Traditional bactericide 1227]: in assay [2], the Growth index was 210, the Sterilization rate stood at 40% and the “Number of SRB” value stood at 1500000 Nr./mL. With `O=CCCCC=O` [Glutaraldehyde], in assay [2], the Growth index was found to be 200, the Sterilization rate is reported as 64% and the “Number of SRB” value is 900000 Nr./mL. Molecule abietic acid imidazoline yielded a Corrosion inhibition efficiency in assay [1] of 93.9%.

As to `CCCCCCCCCCCCCC[N+](C)(C)C.[Br-]` [Tetradecyl trimethyl ammonium bromide, tetradecyl trimethyl ammonium bromide], the Corrosion inhibition efficiency in assay [1] worked out at 90.9%.
